Ends that are not written are not given here.
Each substance was assayed on antibodies in sera from prostate cancer patients (assay: Prostate cancer serum test of cell surface protein peptides (Table 3)). Details: reactivity of peptide with antibodies in sera from prostate cancer patients.
Format: binding, human
Design: key: +: positive or negative reactivity between peptides representing modified peptide regions of cancer cell surface protein molecules with antibodies in sera from prostate cancer patients; −: positive or negative reactivity between peptides representing modified peptide regions of cancer cell surface protein molecules with antibodies in sera from prostate cancer patients
Excerpt: Table 3 third column illustrates the positive or negative reactivity between peptides representing modified peptide regions of cancer cell surface protein molecules with antibodies in sera from prostate cancer patients. The presence or absence in prostate cancer cells of the 41 tested molecules is shown as + or − in column four.
Sixth, employing the immunoassays disclosed herein, each biotinylated peptide is screened as an antigen against sera or other relevant biological fluids containing antibodies taken from one of the following groups: cancer patients, patients with benign lesions or inflammatory conditions, and healthy subjects. Peptides can also be screened using tumor-infiltrating lymphocytes or peripheral blood-born lymphocytes from cancer patients. Candidate peptides we consider cancer-specific or cancer-associated depend on whether they fit the following definitions.
In the case of “IrNes: Tested peptide of cell surface protein integrin alpha 5 (LRNES; not fully specified)”, the “Prostate Cancer Serum Test Result” value was “−”. “NhSeg: Tested peptide of cell surface protein CD44 (NHSEG; not fully specified)” was tested, and the “Prostate Cancer Serum Test Result” value was “+”. In the case of “aeNct: Tested peptide of cell surface protein erbB-4 (AENCT; not fully specified)”, the “Prostate Cancer Serum Test Result” value was “−”. “crNvs: Tested peptide of cell surface protein erbB-1 (CRNVS; not fully specified)” was tested, and the “Prostate Cancer Serum Test Result” value was “−”. For “daNkt: Tested peptide of cell surface protein erbB-1 (DANKT; not fully specified)”, the “Prostate Cancer Serum Test Result” value was “+”. “deNit: Tested peptide of cell surface protein tgfr beta type II (DENIT; not fully specified)” was tested, and the “Prostate Cancer Serum Test Result” value was “+”. For “diNss: Tested peptide of cell surface protein fgfr4 (DINSS; not fully specified)”, the “Prostate Cancer Serum Test Result” value was “−”. With “dkNls: Tested peptide of cell surface protein N-Cadherin (DKNLS; not fully specified)” the “Prostate Cancer Serum Test Result” value was “+”. For “dkNst: Tested peptide of cell surface protein CD38 (DKNST; not fully specified)”, the “Prostate Cancer Serum Test Result” value was “−”. With “drNgt: Tested peptide of cell surface protein CD44 (DRNGT; not fully specified)” the “Prostate Cancer Serum Test Result” value was “+”. In the case of “drNhs: Tested peptide of cell surface protein integrin alpha 2 (DRNHS; not fully specified)”, the “Prostate Cancer Serum Test Result” value was “−”. With “drNht: Tested peptide of cell surface protein CD46 (DRNHT; not fully specified)” the “Prostate Cancer Serum Test Result” value was “−”. In the case of “dtNrs: Tested peptide of cell surface protein erbB-2 (DTNRS; not fully specified)”, the “Prostate Cancer Serum Test Result” value was “+”. For “eeNns: Tested peptide of cell surface protein pdgfr alpha (EENNS; not fully specified)”, the “Prostate Cancer Serum Test Result” value was “−”. “ekNdt: Tested peptide of cell surface protein integrin alpha (v) (EKNDT; not fully specified)” was tested, and the “Prostate Cancer Serum Test Result” value was “−”. With “ekNgs: Tested peptide of cell surface protein fgfr2 (EKNGS; not fully specified)” the “Prostate Cancer Serum Test Result” value was “−”. In the case of “esNrt: Tested peptide of cell surface protein fgfr1 (ESNRT; not fully specified)”, the “Prostate Cancer Serum Test Result” value was “−”. In the case of “evNss: Tested peptide of cell surface protein integrin beta 6 (EVNSS; not fully specified)”, the “Prostate Cancer Serum Test Result” value was “−”. With “eyNts: Tested peptide of cell surface protein tgfr beta type II (EYNTS; not fully specified)” the “Prostate Cancer Serum Test Result” value was “+”. In the case of “gdNrt: Tested peptide of cell surface protein protein-tyrosine phosphatase kappa (GDNRT; also: biotin label, end not given here)”, the “Prostate Cancer Serum Test Result” value was “−”. In the case of “ghNes: Tested peptide of cell surface protein protein-tyrosine phosphatase kappa (GHNES; also: biotin label, end not given here)”, the “Prostate Cancer Serum Test Result” value was “−”. With “gtNkt: Tested peptide of cell surface protein CD40 (GTNKT; also: biotin label, end not given here)” the “Prostate Cancer Serum Test Result” value was “+”. For “heNct: Tested peptide of cell surface protein erbB-3 (HENCT; also: biotin label, end not given here)”, the “Prostate Cancer Serum Test Result” value was “−”. In the case of “hkNqt: Tested peptide of cell surface protein ICAM 1 (HKNQT; also: biotin label, end not given here)”, the “Prostate Cancer Serum Test Result” value was “−”. In the case of “kNvtNrs: Tested peptide of cell surface protein integrin beta I (KNVTNRS; also: biotin label at one end)”, the “Prostate Cancer Serum Test Result” value was “−”. With “kaNts: Tested peptide of cell surface protein integrin alpha 5 (KANTS; also: biotin label at one end)” the “Prostate Cancer Serum Test Result” value was “−”. In the case of “kaNtt: Tested peptide of cell surface protein integrin alpha (v) (KANTT; also: biotin label at one end)”, the “Prostate Cancer Serum Test Result” value was “−”. “kdNrt: Tested peptide of cell surface protein pdgfr beta (KDNRT; also: biotin label at one end)” was tested, and the “Prostate Cancer Serum Test Result” value was “−”. “keNdt: Tested peptide of cell surface protein protein-tyrosine phosphatase kappa (KENDT; also: biotin label at one end)” was tested, and the “Prostate Cancer Serum Test Result” value was “−”. For “kiNat: Tested peptide of cell surface protein desmoglein 2 (KINAT; also: biotin label at one end)”, the “Prostate Cancer Serum Test Result” value was “−”. In the case of “knNht: Tested peptide of cell surface protein CD63 (KNNHT; also: biotin label at one end)”, the “Prostate Cancer Serum Test Result” value was “−”. For “leNht: Tested peptide of cell surface protein integrin alpha 3 (LENHT; also: biotin label at one end)”, the “Prostate Cancer Serum Test Result” value was “−”. For “mNtt: Tested peptide of cell surface protein insulin-like gf receptor”, the “Prostate Cancer Serum Test Result” value was “−”. “meNkt: Tested peptide of cell surface protein integrin alpha 3 (MENKT; also: biotin label at one end)” was tested, and the “Prostate Cancer Serum Test Result” value was “+”. “nkNvt: Tested peptide of cell surface protein integrin beta I (NKNVT; also: biotin label at one end)” was tested, and the “Prostate Cancer Serum Test Result” value was “+”. With “nnNNss: Tested peptide of cell surface protein CD9 (NNNNSS; also: biotin label at one end)” the “Prostate Cancer Serum Test Result” value was “−”. With “pdNct: Tested peptide of cell surface protein erbB-4 (PDNCT; also: biotin label at one end)” the “Prostate Cancer Serum Test Result” value was “−”. In the case of “pdNdt: Tested peptide of cell surface protein insulin-like gf receptor (PDNDT; also: biotin label at one end)”, the “Prostate Cancer Serum Test Result” value was “−”. For “pdNqt: Tested peptide of cell surface protein integrin beta 5 (PDNQT; also: biotin label at one end)”, the “Prostate Cancer Serum Test Result” value was “−”. In the case of “perNrt: Tested peptide of cell surface protein erbB-1 (PERNRT; also: biotin label at one end, end not given here)”, the “Prostate Cancer Serum Test Result” value was “−”. For “pgNrt: Tested peptide of cell surface protein CD82 (PGNRT; also: biotin label at one end, end not given here)”, the “Prostate Cancer Serum Test Result” value was “−”.

Source: patent US6892140B1, “Immunogenic cancer peptides and uses thereof” (Enteron, Inc., priority 2000, dated 2005)
